# Measured values published in paper PMC9238401, “Peptide Conjugates Derived from flg15, Pep13, and PIP1 That Are Active against Plant-Pathogenic Bacteria and Trigger Plant Defense Responses” (Applied and Environmental Microbiology, 2022).
# Assays:
# [1] = system: Erwinia amylovora PMV6076; test: In vitro growth inhibition (MIC); type: cell-based; settings: TSB, 25°C, 48 h, OD 600 nm (Bioscreen C), three replicates, experiment repeated twice; MIC = lowest concentration with no growth, given as range
# Outline: (§1)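 Bacterial suspensions (10^8 CFU mL^−1, from 24 h plates at 25°C) mixed with peptide dilutions in TSB, triplicate wells. OD600 read hourly over 48 h at 25°C with shaking. MIC = lowest concentration with no growth at end of run.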
# [2] = system: Pseudomonas syringae pv. actinidiae Psa3700.1.1; test: In vitro growth inhibition (MIC); type: cell-based; settings: TSB, 25°C, 48 h, OD 600 nm (Bioscreen C), three replicates, experiment repeated twice; MIC given as range
# Outline: as §1
# [3] = system: Pseudomonas syringae pv. syringae EPS94; test: In vitro growth inhibition (MIC); type: cell-based; settings: TSB, 25°C, 48 h, OD 600 nm (Bioscreen C), three replicates, experiment repeated twice; MIC given as range
# Outline: as §1
# [4] = system: Xanthomonas arboricola pv. pruni CFBP5563; test: In vitro growth inhibition (MIC); type: cell-based; settings: TSB, 25°C, 48 h, OD 600 nm (Bioscreen C), three replicates, experiment repeated twice; MIC given as range
# Outline: as §1
# [5] = system: Xanthomonas fragariae Xf349-9A; test: In vitro growth inhibition (MIC); type: cell-based; settings: TSB, 25°C, 48 h, OD 600 nm (Bioscreen C), three replicates, experiment repeated twice; MIC given as range
# Outline: as §1
# [6] = system: Xanthomonas axonopodis pv. vesicatoria 2133-2; settings: TSB, 25°C, 48 h, OD 600 nm (Bioscreen C), three replicates, experiment repeated twice; MIC given as range
# Outline: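 Bacteria grown 24 h (48 h for Xanthomonas axonopodis, X. fragariae) at 25°C, suspended at 10^8 CFU mL^−1, mixed with peptide dilutions in TSB.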
# horse erythrocytes = settings: TRIS buffer pH 7.2, 1 h, 37°C, absorbance 540 nm, relative to melittin 100 μM, ± confidence interval (α = 0.05)
# Outline: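 Horse erythrocytes washed in 10 mM Tris, 150 mM NaCl, pH 7.2 were mixed 1:1 with compound solutions at 750, 500, 300 and 100 μM and shaken 1 h at 37°C. Hemoglobin release read at 540 nm in supernatant; % hemolysis relative to buffer and melittin control.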
# tobacco leaves = test: Effect of peptide infiltration on tobacco leaves (phytotoxicity); type: in vivo
# Outline: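 Peptide solutions at 50, 150 and 250 μM were infiltrated into the mesophyll of fully expanded tobacco leaves, with at least three leaves per peptide and dose on different plants. Water and equimolar melittin served as controls. Lesion diameter was measured 48 h after infiltration.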
# [7] = HPLC retention time as indicator of relative hydrophobicity; type: physicochemical; settings: chromatographic, Kromasil 100 C18 (4.6 mm × 40 mm, 3 μm), linear gradient 2 to 100% B over 12 min, 1 mL/min; A 0.1% aqueous TFA, B 0.1% TFA in CH3CN; used as indicator of relative hydrophobicity
# Protocol: The parameters related to the structure of the peptide conjugates (sequence, charge, hydrophobic ratio [HR], and HPLC retention time), as well as their physicochemical properties (grand average hydropathicity [GRAVY] and hydrophobic moment [<μH>]) obtained from the online programs ProtParam (Expasy server) and HeliQuest are included in Table 1.
# Peptides were analyzed under standard analytical HPLC conditions. Method A: peptides were analyzed with a Dionex liquid chromatography instrument composed of a UV/Vis Dionex UVD170U detector, a P680 Dionex pump, an ASI-100 Dionex automatic injector, and Chromeleon 6.60 software. Detection was performed at a wavelength of 220 nm. Solvent A was 0.1% aqueous trifluoroacetic acid (TFA), and solvent B was 0.1% TFA in CH3CN. Analyses were carried out with a Kromasil 100 C18 (4.6 mm × 40 mm, 3 μm) column with a linear gradient of 2 to 100% B over 7 min at a flow rate of 1 mL/min. Method B: peptides were analyzed with a 1260 Infinity II liquid chromatography instrument (Agilent Technologies) composed of a diode array detector HS, a quaternary pump VL, a 1260 vial sampler, and OpenLab CDS ChemStation software. Analyses were carried out with a Kromasil 100 C18 (4.6 mm × 40 mm, 3 μm) column with a linear gradient of 2 to 100% B over 12 min at a flow rate of 1 mL/min.
# [8] = 100 μL infiltrated into mesophyll, lesion diameter 48 h after infiltration, at least three leaves, ± confidence interval (α = 0.05)
Substance,"MIC, Ea [1] [µM]","MIC, Psa [2] [µM]","MIC, Pss [3] [µM]","MIC, Xap [4] [µM]","MIC, Xf [5] [µM]","MIC, Xav [6] [µM]",Percent hemolysis at 50 μM (horse erythrocytes) [%],Percent hemolysis at 150 μM (horse erythrocytes) [%],Percent hemolysis at 250 μM (horse erythrocytes) [%],Percent hemolysis at 375 μM (horse erythrocytes) [%],Size of the lesions in infiltrated tobacco leaves at 50 μM (tobacco leaves; [8]) [cm],Size of the lesions in infiltrated tobacco leaves at 150 μM (tobacco leaves; [8]) [cm],Size of the lesions in infiltrated tobacco leaves at 250 μM (tobacco leaves; [8]) [cm],"tR (min), HPLC retention time (method B) [7] [min]",Size of the lesions in infiltrated tobacco leaves at 50 μM (tobacco leaves; in vivo) [cm],Size of the lesions in infiltrated tobacco leaves at 150 μM (tobacco leaves; in vivo) [cm],Size of the lesions in infiltrated tobacco leaves at 250 μM (tobacco leaves; in vivo) [cm]
H-KKVVFWVKFKFKLFKKILKVL-NH2 [KSLW-BP13],25 to 50,1.6 to 3.1,25 to 50,1.6 to 3.1,1.6 to 3.1,3.1 to 6.2,62 ± 8.2,65 ± 5.9,77 ± 12.9,82 ± 10.4,0.52 ± 0.13,0.88 ± 0.15,1.07 ± 0.34,6.26,–,–,–
"Ac-KKLfKKILKK(COC3H7)L-RINSAKDDAAGLQIA-OH [BP475-flg15, peptide conjugate, lipopeptide BP475 at N-terminus, flg15 at C-terminus]",12.5 to 25,3.1 to 6.2,6.2 to 12.5,1.6 to 3.1,25 to 50,3.1 to 6.2,1 ± 1.0,0 ± 0.2,1 ± 0.3,1 ± 0.3,0.43 ± 0.13,1.20 ± 0.23,1.23 ± 0.28,6.03,–,–,–
"Ac-KKLFKKIK(COC3H7)KYL-RINSAKDDAAGLQIA-OH [BP387-flg15, peptide conjugate, lipopeptide BP387 at N-terminus, flg15 at C-terminus]",25 to 50,6.2 to 12.5,3.1 to 6.2,1.6 to 3.1,6.2 to 12.5,3.1 to 6.2,3 ± 0.3,5 ± 0.9,7 ± 0.2,9 ± 2.5,0.23 ± 0.24,0.33 ± 0.35,0.93 ± 0.40,5.84,–,–,–
"KKLFKKILKKL-RINSAKDDAAGLQIA-OH [BP16-flg15, peptide conjugate, BP16 at N-terminus, flg15 at C-terminus]",> 50,12.5 to 25,12.5 to 25,25 to 50,12.5 to 25,3.1 to 6.2,0 ± 0.3,1 ± 0.1,0 ± 0.6,1 ± 0.5,0 ± 0,0.31 ± 0.10,0.30 ± 0.09,4.59,–,–,–
H-KKVVFWVKFKYGIHTH-NH2 [KSLW-PIP1],> 50,> 50,> 50,3.1 to 6.2,3.1 to 6.2,3.1 to 6.2,8 ± 1.3,3 ± 2.1,3 ± 1.2,5 ± 4.9,–,–,–,4.83,0.17 ± 0.17,0.53 ± 0.07,0.97 ± 0.28
